Measurements from patent US10448635B2, “Modulation of plant biology” (FBSCIENCES HOLDINGS, INC., priority 2012, dated 2019).

Experiments:
Format in all cases: in vivo
[1] = system: tomato plants (Lycopersicon es.); experiment: Experiment Fe-4: foliar CPPA, Fe (FeSO4) or CPPA and Fe on tomato plants; conditions: for Leaf # / Vigor / Plt. Ht. / Plt. Wt. / Root Wt. / Shoot Wt.: tomato, foliar
Text: Experiment Fe-4: The purpose of this experiment was to determine if the addition of low levels of iron to a CPPA sample containing lower than typical amounts of iron (e.g., Fe/TOC=0.135) would increase the biological response of plants. Nominal Fe/TOC ratios for CPPA range from 0.10 to 0.28 but the optimum ratio for “as-is” samples of CPPA, as determined in the previous experiments, is between 0.2 and 0.25. Thus, for this experiment, non-agrochemically effective amounts of iron were combined with CPPA samples. Tomato plants (Lycopersicon es.) were produced from seed and transplanted into 3 inch by 3 inch pots. There were 16 treatments plus an untreated check with 20 replicates per treatment arranged in a Randomized Complete Block design. Pots were treated with water (UTC), or CPPA only (3 different rates), Fe only (3 different rates), or CPPA and Fe at each of the rates. The CPPA rates corresponded to 260, 520, and 1040 mg organic carbon (TOC) per hectare and the Fe rates corresponded to 130, 260, and 520 mg Fe per hectare. All pots were treated by foliar application immediately after transplanting. Ten days after the application, ten of the plants were harvested and assessed for vigor, leaf number, plant height, plant weight, root weight, and shoot weight. […] Additional application rates of CPPA and Fe were evaluated with similar synergistic results observed for the combination of CPPA with amounts of iron. Twenty days after transplanting, the remaining ten plants in each treatment were assessed.

plants and/or seeds = experiment: Summary observations: CPPA treated with cation exchange resin, Fe alone and Fe added back; conditions: seed treatment
Protocol: The plant biological response was generally observed to be better when a stoichiometric amount of Fe was added back (relative to the amount of CPPA or its TOC value) rather than an excess amount. […] These observations support the premise that the combination of CPPA and Fe are synergistic in their interaction and biological effect on plants and/or seeds.

[2] = system: tomato plants (Lycopersicon es.); experiment: Experiment Salt-1: CPPA/NaCl composition, foliar application; conditions: NaCl 2600 mg/ha
Protocol: Experiment Salt-1: […] There were a total of 5 treatments plus an untreated check, each with 10 replicates per treatment arranged in a randomized block design. […] Each treatment comprised samples treated with CPPA alone, salt alone, or CPPA plus salt. Two rates of CPPA were used; the first was equivalent to 520 mg of TOC per hectare and a second equivalent to 1040 mg of TOC per hectare. Salt was applied at a rate equivalent to 2.6 g of salt per hectare. All treatments were diluted with water to provide a final spray volume equivalent to 208 lit per hectare, made with a spray bottle, with just enough spray solution to wet the leaf surface of each plant. Ten days after treatment the plants were assessed for vigor, leaf number, plant height, plant weight, root weight, shoot weight, and leaf conductance using a SPAD meter and are summarized in Table 8 and depicted in FIGS. 10-16.

[3] = 0 mg TOC/ha + 130 mg Fe/ha, 20 days after application
[4] = 0 mg TOC/ha + 520 mg Fe/ha, 10 days after application
[5] = 0 mg TOC/ha + 520 mg Fe/ha, 20 days after application
[6] = foliar at transplanting, 10 days after treatment

## O=S(=O)([O-])[O-].[Fe+2] [Fe, FeSO4]
[1]; Fe alone 520 mg Fe/ha, 20 days
  biological effect on plant, root and shoot weights versus UTC: apparent slightly negative biological effect
[1]; [3]
  Leaf #: 6.3 ab
  Vigor: 2.1 c
[1]; [4]
  Leaf #: 6.6 ab
  Plt. Ht.: 4.2 b
  Plt. Wt.: 4.9 b
  Root Wt.: 1.4 bc
  Shoot Wt.: 3.6 b
  Vigor: 3.8 b
[1]; [5]
  Leaf #: 5.1 b
  Plt. Ht.: 6.3 b
  Plt. Wt.: 4.5 b
  Root Wt.: 1.6 bc
  Shoot Wt.: 2.9 cd
  Vigor: 2.5 c
Plants and/or seeds
  root development: negative effect
  shoot development: negative effect

## [Cl-].[Na+] [NaCl]
[2]; [6]
  Leaf #: 5.3 e
  Plt. Ht.: 3.5 b
  Plt. Wt.: 2.7 c
  Root Wt.: 0.8 jc
  Shoot Wt.: 2.0 c
  Vigor: 2.4 b
[2]; foliar, 10 days
  phytotoxicity of salt treatment alone: significant amount of phytotoxicity
[2]; leaf conductance using a SPAD meter, foliar at transplanting, 10 days after treatment
  SPAD: 24.2 b
